Test results: US20060134102A1, “Lymphotoxin beta receptor agents in combination with chemotherapeutic agents” (Biogen Idec MA Inc., priority 2002, published 2006)
Values joined by “and” are separate entries in the source; they are usually repeats but may differ in a detail not shown here. Identical values can stand only once.

Test system: KM-20L2 human colorectal adenocarcinoma
Experiment: KM-20L2 xenograft model: growth of established KM-20L2 human colorectal tumors in athymic nude mice (tumor volume/weight, % T/C, Fa, Combination Index)
Type: in vivo

huCBE11: humanized anti-LT-β-R agonist antibody (LTβ receptor-activating mAb), described in WO 02/30986
Mean Fraction Affected (Fa) (huCBE11 2 mg/kg, Day 9): 0.103 | Mean Fraction Affected/Fraction Unaffected (Fa/Fu) (huCBE11 2 mg/kg, Day 9): 0.115 | Mean Tumor Volume (huCBE11 2 mg/kg, Day 9): 100.3 cubic mm | Mean Tumor Volume Decrease (huCBE11 2 mg/kg, Day 9): 11.5 cubic mm | Mean Fraction Affected (Fa) (huCBE11 2 mg/kg, Day 13): 0.057 | Mean Fraction Affected/Fraction Unaffected (Fa/Fu) (huCBE11 2 mg/kg, Day 13): 0.061 | Mean Tumor Volume (huCBE11 2 mg/kg, Day 13): 162.7 cubic mm | Mean Tumor Volume Decrease (huCBE11 2 mg/kg, Day 13): 9.9 cubic mm | Mean Fraction Affected (Fa) (huCBE11 2 mg/kg, Day 16): 0.119 | Mean Fraction Affected/Fraction Unaffected (Fa/Fu) (huCBE11 2 mg/kg, Day 16): 0.135 | Mean Tumor Volume (huCBE11 2 mg/kg, Day 16): 233.5 cubic mm | Mean Tumor Volume Decrease (huCBE11 2 mg/kg, Day 16): 31.5 cubic mm | Mean Fraction Affected (Fa) (huCBE11 2 mg/kg, Day 20): 0.342 | Mean Fraction Affected/Fraction Unaffected (Fa/Fu) (huCBE11 2 mg/kg, Day 20): 0.521 | Mean Tumor Volume (huCBE11 2 mg/kg, Day 20): 263.7 cubic mm | Mean Tumor Volume Decrease (huCBE11 2 mg/kg, Day 20): 137.3 cubic mm | Mean Fraction Affected/Fraction Unaffected (Fa/Fu) (huCBE11 2 mg/kg, Day 23): 0.554 | Mean Tumor Volume (huCBE11 2 mg/kg, Day 23): 339.2 cubic mm | Mean Tumor Volume Decrease (huCBE11 2 mg/kg, Day 23): 188.0 cubic mm | Mean Fraction Affected (Fa) (huCBE11 2 mg/kg, Day 27): 0.419 | Mean Fraction Affected/Fraction Unaffected (Fa/Fu) (huCBE11 2 mg/kg, Day 27): 0.720 | Mean Tumor Volume (huCBE11 2 mg/kg, Day 27): 388.7 cubic mm | Mean Tumor Volume Decrease (huCBE11 2 mg/kg, Day 27): 279.9 cubic mm | Mean Fraction Affected (Fa) (huCBE11 2 mg/kg, Day 30): 0.449 | Mean Fraction Affected/Fraction Unaffected (Fa/Fu) (huCBE11 2 mg/kg, Day 30): 0.813 | Mean Tumor Volume (huCBE11 2 mg/kg, Day 30): 450.1 cubic mm | Mean Tumor Volume Decrease (huCBE11 2 mg/kg, Day 30): 366.1 cubic mm | Mean Fraction Affected (Fa) (huCBE11 2 mg/kg, Day 34): 0.505 | Mean Fraction Affected/Fraction Unaffected (Fa/Fu) (huCBE11 2 mg/kg, Day 34): 1.020 | Mean Tumor Volume (huCBE11 2 mg/kg, Day 34): 519.9 cubic mm | Mean Tumor Volume Decrease (huCBE11 2 mg/kg, Day 34): 530.4 cubic mm | Mean Fraction Affected (Fa) (huCBE11 2 mg/kg, Day 37): 0.520 | Mean Fraction Affected/Fraction Unaffected (Fa/Fu) (huCBE11 2 mg/kg, Day 37): 1.082 | Mean Tumor Volume (huCBE11 2 mg/kg, Day 37): 580.1 cubic mm | Mean Tumor Volume Decrease (huCBE11 2 mg/kg, Day 37): 627.9 cubic mm | Mean Fraction Affected (Fa) (huCBE11 2 mg/kg, Day 41): 0.567 | Mean Fraction Affected/Fraction Unaffected (Fa/Fu) (huCBE11 2 mg/kg, Day 41): 1.310 | Mean Tumor Volume (huCBE11 2 mg/kg, Day 41): 623.2 cubic mm | Mean Tumor Volume Decrease (huCBE11 2 mg/kg, Day 41): 816.2 cubic mm | Mean Fraction Affected (Fa) (huCBE11 2 mg/kg, Day 43): 0.588 | Mean Fraction Affected/Fraction Unaffected (Fa/Fu) (huCBE11 2 mg/kg, Day 43): 1.424 | Mean Tumor Volume (huCBE11 2 mg/kg, Day 43): 662.7 cubic mm | Mean Tumor Volume Decrease (huCBE11 2 mg/kg, Day 43): 944.0 cubic mm | Tumor growth vs vehicle control (huCBE11 4 mg/kg and 2 mg/kg, Days 20-55, separate study): significantly decreased | Mean Fraction Affected (Fa) (huCBE11 4 mg/kg, Day 9): −0.125 | Mean Fraction Affected/Fraction Unaffected (Fa/Fu) (huCBE11 4 mg/kg, Day 9): −0.111 | Mean Tumor Volume (huCBE11 4 mg/kg, Day 9): 125.8 cubic mm | Mean Tumor Volume Decrease (huCBE11 4 mg/kg, Day 9): −14.0 cubic mm | Mean Fraction Affected (Fa) (huCBE11 4 mg/kg, Day 13): −0.048 | Mean Fraction Affected/Fraction Unaffected (Fa/Fu) (huCBE11 4 mg/kg, Day 13): −0.046 | Mean Tumor Volume (huCBE11 4 mg/kg, Day 13): 180.9 cubic mm | Mean Tumor Volume Decrease (huCBE11 4 mg/kg, Day 13): −8.3 cubic mm | Mean Fraction Affected/Fraction Unaffected (Fa/Fu) (huCBE11 4 mg/kg, Day 16): 0.070 | Mean Tumor Volume (huCBE11 4 mg/kg, Day 16): 247.6 cubic mm | Mean Tumor Volume Decrease (huCBE11 4 mg/kg, Day 16): 17.4 cubic mm | Mean Fraction Affected (Fa) (huCBE11 4 mg/kg, Day 20): 0.307 | Mean Fraction Affected/Fraction Unaffected (Fa/Fu) (huCBE11 4 mg/kg, Day 20): 0.442 | Mean Tumor Volume (huCBE11 4 mg/kg, Day 20): 278.0 cubic mm | Mean Tumor Volume Decrease (huCBE11 4 mg/kg, Day 20): 123.0 cubic mm | Mean Fraction Affected (Fa) (huCBE11 4 mg/kg, Day 23): 0.347 | Mean Fraction Affected/Fraction Unaffected (Fa/Fu) (huCBE11 4 mg/kg, Day 23): 0.531 | Mean Tumor Volume (huCBE11 4 mg/kg, Day 23): 344.3 cubic mm | Mean Tumor Volume Decrease (huCBE11 4 mg/kg, Day 23): 182.9 cubic mm | Mean Fraction Affected (Fa) (huCBE11 4 mg/kg, Day 27): 0.423 | Mean Fraction Affected/Fraction Unaffected (Fa/Fu) (huCBE11 4 mg/kg, Day 27): 0.733 | Mean Tumor Volume (huCBE11 4 mg/kg, Day 27): 385.8 cubic mm | Mean Tumor Volume Decrease (huCBE11 4 mg/kg, Day 27): 282.8 cubic mm | Mean Fraction Affected (Fa) (huCBE11 4 mg/kg, Day 30): 0.412 | Mean Fraction Affected/Fraction Unaffected (Fa/Fu) (huCBE11 4 mg/kg, Day 30): 0.700 | Mean Tumor Volume (huCBE11 4 mg/kg, Day 30): 480.1 cubic mm | Mean Tumor Volume Decrease (huCBE11 4 mg/kg, Day 30): 336.1 cubic mm | Mean Fraction Affected (Fa) (huCBE11 4 mg/kg, Day 34): 0.468 | Mean Fraction Affected/Fraction Unaffected (Fa/Fu) (huCBE11 4 mg/kg, Day 34): 0.879 | Mean Tumor Volume (huCBE11 4 mg/kg, Day 34): 558.9 cubic mm | Mean Tumor Volume Decrease (huCBE11 4 mg/kg, Day 34): 491.4 cubic mm | Mean Fraction Affected (Fa) (huCBE11 4 mg/kg, Day 37): 0.511 | Mean Fraction Affected/Fraction Unaffected (Fa/Fu) (huCBE11 4 mg/kg, Day 37): 1.044 | Mean Tumor Volume (huCBE11 4 mg/kg, Day 37): 591.1 cubic mm | Mean Tumor Volume Decrease (huCBE11 4 mg/kg, Day 37): 616.9 cubic mm | Mean Fraction Affected (Fa) (huCBE11 4 mg/kg, Day 41): 0.512 | Mean Fraction Affected/Fraction Unaffected (Fa/Fu) (huCBE11 4 mg/kg, Day 41): 1.050 | Mean Tumor Volume (huCBE11 4 mg/kg, Day 41): 702.0 cubic mm | Mean Tumor Volume Decrease (huCBE11 4 mg/kg, Day 41): 737.4 cubic mm | Mean Fraction Affected (Fa) (huCBE11 4 mg/kg, Day 43): 0.518 | Mean Fraction Affected/Fraction Unaffected (Fa/Fu) (huCBE11 4 mg/kg, Day 43): 1.073 | Mean Tumor Volume (huCBE11 4 mg/kg, Day 43): 775.1 cubic mm | Mean Tumor Volume Decrease (huCBE11 4 mg/kg, Day 43): 831.6 cubic mm | Inhibition of tumor growth vs vehicle control (huCBE11 20 mg/kg Days 16 through 55, 2 mg/kg Days 16 through 55, 0.2 mg/kg Days 20 through 55, separate study): significant inhibition of tumor growth | Mean Fraction Affected (Fa) (huCBE11 20 mg/kg alone, Day 9): 0.053 | Mean Fraction Affected (Fa) (huCBE11 20 mg/kg alone, Day 13, 20 mg/kg): 0.087 and 0.086 | Mean Fraction Affected (Fa) (huCBE11 20 mg/kg alone, Day 16, 20 mg/kg): 0.263 and 0.264 | Mean Fraction Affected (Fa) (huCBE11 20 mg/kg alone, Day 20): 0.435 | Mean Fraction Affected (Fa) (huCBE11 20 mg/kg alone, Day 23): 0.504 | Mean Fraction Affected (Fa) (huCBE11 20 mg/kg alone, Day 27): 0.576 | Mean Fraction Affected (Fa) (huCBE11 20 mg/kg alone, Day 30): 0.539 | Mean Fraction Affected (Fa) (huCBE11 20 mg/kg alone, Day 34): 0.543 | Mean Fraction Affected (Fa) (huCBE11 20 mg/kg alone, Day 37): 0.525 | Mean Fraction Affected (Fa) (huCBE11 20 mg/kg alone, Day 41): 0.538 | % T/C (huCBE11 20 mg/kg, Day 27 (lowest observed)): 42.4% | Activity by NCI criteria (% T/C at or below 42) (huCBE11, studies of the Camptosar example): inactive | Activity by NCI criteria (% T/C of 42 or less) (huCBE11, studies of the gemcitabine example): active | % T/C (huCBE11 dose groups, throughout both studies (Camptosar example)): > 42%
